From publication PMC5054432 (Scientific Reports, 2016) come the findings set out here.

Values joined by “and” are separate entries in the source; they are usually repeats but may differ in a detail not shown here. Equal entries are not always repeated.

For assay [1], the target named is T1, GluN1/GluN2B-F114AzF receptors (Rattus norvegicus (GluN1-1a); Mus musculus (GluN2B), UniProt P35439+Q01097). Kind of assay: MK-801 inhibition kinetics (index of channel open probability), TEVC in oocytes. It is filed as cell-based, rat GluN1-1a, mouse GluN2B. More on the design: expressed in transfected cells; host or cells: Xenopus laevis oocytes co-injected with GluN1, GluN2B amber mutant, Yam suppressor tRNA and AzF-RS, incubated with 1 mM AzF. The note with it: 50 nM MK-801, normalized to mean τon of wt. The protocol: (§1) To analyze the gating property change, we assessed channel maximal open probability (Po) using MK-801, a specific open-pore blocker of NMDARs[25]. Because the rate at which MK-801 inhibits the macroscopic NMDAR responses is proportional to the level of channel activity (i.e. Po), this MK-801 assay is classically used to index NMDAR channel activity.
(§2) For all experiments, the standard external solutions contained: 100 mM NaCl, […] BaCl2, and 5 mM HEPES, pH adjusted to 7.3 with KOH. […] Currents were recorded and measured at a holding potential of −60 mV at room temperature.
(§3) The measurements at 30 μM were corrected by multiply with a correcting value to remove the pore blocking effect at −60 mV[49]. Zinc was prepared at 100 mM ZnCl2 stock (in 1% HCl). In all zero-Zn^2+ control solutions, diethylenetriamine-pentaacetic acid (DTPA, 10 μM) was added to chelate trace Zn^2+ and other heavy metals. Spermine potentiation was analyzed as described earlier. Solutions of 200 μM spermine (Sigma-Aldrich) were made by directly diluting the powder into the standard agonist solution. Spermine sensitivity was assessed at pH 6.5 in order to maximize the spermine-induced potentiation. Experiments with MK-801 were performed as described previously. […] Each τon was then normalized to the mean τon of wt receptors measured the same day. […]

In assay [2] the target is T2, wt GluN1/GluN2B receptors (UniProt P35439+Q01097). The description is as above. The following applies: 50 nM MK-801, normalized to mean τon of wt. In kind it is cell-based, rat GluN1-1a, mouse GluN2B. As to the method: as §1, §2, §3
In assay [3] the target is T1, GluN1/GluN2B-F114AzF receptors. Kind of assay: UV-induced current potentiation in the presence of allosteric modulators, TEVC in oocytes. More on the design: expressed in transfected cells; host or cells: Xenopus laevis oocytes co-injected with GluN1, GluN2B amber mutant, Yam suppressor tRNA and AzF-RS, incubated with 1 mM AzF. It is filed as cell-based, rat GluN1-1a, mouse GluN2B.
Source text: To evaluate whether AzF photo-activation in GluN2B produces functional changes, we applied a time-resolved assay[10] by combining online application of UV light and simultaneously recording of agonist-induced currents using TEVC. Current after UV illumination (Iuv) were compared to currents before UV illumination (Io) and yielded the relative current changes (Iuv/Io).
To understand how the NTD dimer interfacial contact influences allosteric modulation, we have quantified UV-induced potentiation in the presence of different modulators, including a GluN2B specific positive allosteric modulator spermine.
as §2
(§4) The measurements at 30 μM were corrected by multiply with a correcting value to remove the pore blocking effect at −60 mV[49]. Zinc was prepared at 100 mM ZnCl2 stock (in 1% HCl). In all zero-Zn^2+ control solutions, diethylenetriamine-pentaacetic acid (DTPA, 10 μM) was added to chelate trace Zn^2+ and other heavy metals. Spermine potentiation was analyzed as described earlier. Solutions of 200 μM spermine (Sigma-Aldrich) were made by directly diluting the powder into the standard agonist solution. Spermine sensitivity was assessed at pH 6.5 in order to maximize the spermine-induced potentiation. Experiments with MK-801 were performed as described previously. MK-801 solutions (10–50 nM) were prepared by dilution of stock solution (50 μM) into agonist containing solution[4]. MK-801 time constants of inhibition (τon) were obtained by fitting currents with a single-exponential component to a time window corresponding to 10–90% of maximum inhibition. Each τon was then normalized to the mean τon of wt receptors measured the same day.
(§5) For all functional recordings in Xenopus oocytes, online UV light treatment with PE-2 light source (CoolLED) using a 365 nm filter channeled through optical fiber was directly applied to the dark hemisphere of the oocytes in the recording chamber. […] For measurements in presence of agonists and allosteric modulators, the UV application duration was ~3 min. In the absence of agonist, the UV application duration was ~5 min.

For assay [4] the target is unchanged. Nature of the assay: Ifenprodil and Zn2+ inhibition dose-response, TEVC in Xenopus laevis oocytes. The note with it: for IC50 / Zn2+ Hill coefficient nH: F114AzF mutant. In kind it is cell-based. As to the method:
(§6) Oocytes were prepared and injected as described previously. Recombinant NMDARs were expressed in Xenopus laevis oocytes after nuclear injection of 36 nl of a mixture cDNAs encoding various GluN1 and GluN2 subunits (ratio 1:1, 10 ng/μl for GluN2A and 30 ng/μl for GluN2B). For Uaa incorporation, oocytes were co-injected with a 36 nl mixture of cDNAs containing GluN1, GluN2, Yam, and aaRS as follows, unless otherwise indicated in the text: GluN1-wt (60 ng/μl), GluN2A-F115AzF (60 ng/μl), Yam (5 ng/μl), AzF-RS (2.5 ng/μl); or, GluN1-wt (80 ng/μl), GluN2B-F114AzF (80 ng/μl), Yam (10 ng/μl), AzF-RS (5 ng/μl). After injection, oocytes were incubated at 19 °C in a Barth solution (88 mM NaCl, 1 mM KCl, 0.33 mM Ca(NO3)2, 0.41 mM CaCl2, 0.82 mM MgSO4, 2.4 mM NaHCO3, 10 mM HEPES, pH adjusted to 7.6 with NaOH) supplemented with gentamicin sulfate ([…]) and D-APV (50 μM). AzF was dissolved with sonication in Barth solution (stock solution at 10 mM), and diluted (1 mM) for oocytes incubation.
as §2, §4, §5

The target in assay [5] is T2, wt GluN1/GluN2B receptors. The assay is described as above. It is filed as cell-based, rat GluN1-1a, mouse GluN2B. As to the method:
as §6, §2, §4, §5

Assay [6] addresses T1, GluN1/GluN2B-F114AzF receptors. The note with it: 200 μM spermine, pH 6.5, without UV.
Experimental: For all experiments, the standard external solutions contained: 100 mM NaCl, 300 mM BaCl2, and 5 mM HEPES, pH adjusted to 7.3 with KOH. […] Currents were recorded and measured at a holding potential of −60 mV at room temperature.
The measurements at 30 μM were corrected by multiply with a correcting value to remove the pore blocking effect at −60 mV[49]. Zinc was prepared at 100 mM ZnCl2 stock (in 1% HCl). In all zero-Zn^2+ control solutions, diethylenetriamine-pentaacetic acid (DTPA, 10 μM) was added to chelate trace Zn^2+ and other heavy metals[25]. […] Experiments with MK-801 were performed as described previously. MK-801 solutions (10–50 nM) were prepared by dilution of stock solution (50 μM) into agonist containing solution[4]. MK-801 time constants of inhibition (τon) were obtained by fitting currents with a single-exponential component to a time window corresponding to 10–90% of maximum inhibition. Each τon was then normalized to the mean τon of wt receptors measured the same day.
A further assay addresses wild-type GluN1 (rat) (UniProt P35439).

T2 sequence (Q01097 27-1482, other chains not shown): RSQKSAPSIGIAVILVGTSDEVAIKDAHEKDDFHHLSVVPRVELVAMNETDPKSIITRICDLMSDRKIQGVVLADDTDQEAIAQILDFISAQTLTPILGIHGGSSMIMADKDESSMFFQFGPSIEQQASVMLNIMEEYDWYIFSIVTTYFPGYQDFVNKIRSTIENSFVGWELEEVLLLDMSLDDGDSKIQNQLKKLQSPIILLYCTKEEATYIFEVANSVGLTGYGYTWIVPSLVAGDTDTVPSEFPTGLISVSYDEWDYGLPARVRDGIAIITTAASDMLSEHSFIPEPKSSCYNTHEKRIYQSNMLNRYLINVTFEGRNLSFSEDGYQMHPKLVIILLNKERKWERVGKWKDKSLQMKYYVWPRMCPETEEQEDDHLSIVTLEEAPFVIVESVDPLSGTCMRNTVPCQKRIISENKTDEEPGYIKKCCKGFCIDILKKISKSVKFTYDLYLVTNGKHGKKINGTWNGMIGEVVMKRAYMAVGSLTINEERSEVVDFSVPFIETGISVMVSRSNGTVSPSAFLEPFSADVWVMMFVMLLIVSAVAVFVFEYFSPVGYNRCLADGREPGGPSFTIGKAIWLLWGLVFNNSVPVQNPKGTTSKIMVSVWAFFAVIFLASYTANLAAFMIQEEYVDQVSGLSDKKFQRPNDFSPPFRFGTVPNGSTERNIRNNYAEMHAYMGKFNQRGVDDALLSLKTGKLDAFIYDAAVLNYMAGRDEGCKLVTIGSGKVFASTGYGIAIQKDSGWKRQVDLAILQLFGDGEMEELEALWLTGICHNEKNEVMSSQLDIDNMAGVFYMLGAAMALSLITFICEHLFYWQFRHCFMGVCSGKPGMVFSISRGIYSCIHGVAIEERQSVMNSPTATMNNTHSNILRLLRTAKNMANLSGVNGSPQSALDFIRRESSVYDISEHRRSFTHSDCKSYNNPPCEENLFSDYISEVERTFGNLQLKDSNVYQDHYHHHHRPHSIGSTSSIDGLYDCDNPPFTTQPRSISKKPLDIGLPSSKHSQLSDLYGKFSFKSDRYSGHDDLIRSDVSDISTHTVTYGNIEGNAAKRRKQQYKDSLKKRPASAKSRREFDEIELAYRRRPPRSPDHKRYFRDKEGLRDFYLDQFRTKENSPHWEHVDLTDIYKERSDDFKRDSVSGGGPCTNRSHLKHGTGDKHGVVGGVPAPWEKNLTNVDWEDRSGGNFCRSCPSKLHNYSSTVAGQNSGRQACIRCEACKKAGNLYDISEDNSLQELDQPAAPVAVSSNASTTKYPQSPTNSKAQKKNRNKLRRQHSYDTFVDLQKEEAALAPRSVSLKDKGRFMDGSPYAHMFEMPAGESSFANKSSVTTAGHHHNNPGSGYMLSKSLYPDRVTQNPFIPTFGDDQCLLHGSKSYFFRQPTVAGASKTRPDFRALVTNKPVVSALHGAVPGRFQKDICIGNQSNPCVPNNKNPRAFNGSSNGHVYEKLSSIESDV
T1 sequence (Q01097 27-1482, other chains not shown): as above

As for `C[C@]12N[C@H](Cc3ccccc31)c1ccccc12` [MK-801, (+)-MK-801], the “Relative MK-801 τon” value was determined as 0.80 ± 0.07 in assay [1] (F114AzF mutant with UV), 1.81 ± 0.47 in assay [1] (F114AzF mutant without UV), 0.90 ± 0.06 in assay [2] (wild-type with UV) and 1.00 in assay [2] (wild-type without UV).

For orientation: IC50 means the point on the concentration scale where inhibition reaches its midpoint. For `[Cl-].[Cl-].[Zn+2]` [Zn^2+, ZnCl2], the “Relative current (I+uv/I0) after wash-off of modulator” value in assay [3] (10 μM Zn2+ with co-agonists, +UV (~3 min, 365 nm)) turned out to be 1.40 ± 0.43. The “Relative current (I/I0) after wash-off of modulator” value in assay [3] (10 μM Zn2+ with co-agonists, -UV) is 0.92 ± 0.29. Moreover, the “Maximal inhibition (%)” value stood at 16 ± 7% in assay [4] (0.1uM inhibitor, +UV); 25 ± 8% in assay [4] (0.1uM inhibitor, -UV); 35 ± 4% in assay [4] (1uM inhibitor, +UV); 49 ± 11% in assay [4] (1uM inhibitor, -UV); 83 ± 1% in assay [4] (10uM inhibitor, +UV); 87 ± 4% in assay [4] (10uM inhibitor, -UV). Also, the “Change in Zn2+ maximal inhibition” value in assay [4] (F114AzF mutant before and after UV versus wt) was “no change”. The IC50 in assay [4] (after UV) is 1720 ± 600 nM; in assay [4] (before UV) it was 780 ± 250 nM; in assay [5] (after UV) it was 720 ± 120 nM; in assay [5] (before UV), 580 ± 130 nM. The “Zn2+ Hill coefficient nH” value is reported as 0.77 in assay [4] (after UV), 0.62 in assay [4] (before UV), 0.78 in assay [5] (after UV) and 0.59 in assay [5] (before UV).

For `CC(C(O)c1ccc(O)cc1)N1CCC(Cc2ccccc2)CC1` (centres unmarked) [ifenprodil], the “Effect on UV potentiation” value in assay [3] (in the presence of ifenprodil) is recorded as “completely abolished”. Further, the Ifenprodil maximal inhibition in assay [4] was 77% and 67%. Also, the “Maximal inhibition (%)” value in assay [4] (0.1 µM) is 16 ± 3% and 9 ± 4 %; in assay [4] (1 µM), 54 ± 4% and 35 ± 4 %; in assay [4] (10 µM) it was 77 ± 3% and 55 ± 3 %. For the same compound, in assay [5], the “Ifenprodil Hill coefficient nH” value turned out to be 1.14.

`NCCCNCCCCNCCCN` [spermine]: in assay [6], the “Spermine potentiation of receptor activation” value was 4.6 fold. In addition, the “Relative current (I+uv/I0)” value in assay [3] (200 μM spermine, pH 6.5, +UV (~3 min, 365 nm)) turned out to be 2.80 ± 0.64. Also, the “Relative current (I/I0)” value in assay [3] (200 μM spermine, pH 6.5, -UV) is 0.85 ± 0.10. Also, the “τon of UV induced additional potentiation” value in assay [3] (in the presence of 200 μM spermine, pH 6.5) is 50.8 s.

For the compound “GluN2B-F114AzF (from UniProt Q01097 27-1482) (receptor)”, the relative current Iuv/Io after UV illumination of maximally activated receptors (TEVC in oocytes, UV-induced potentiation) with wild-type GluN1 (rat) stood at 1.97.
